Patent publication US11053234B2 (GlaxoSmithKline Intellectual Property Development Limited, priority 2016, dated 2021)

target: T1, haematopoietic prostaglandin D synthase (H-PGDS) (Homo sapiens, UniProt O60760); test: H-PGDS RapidFire high throughput mass spectrometry assay (conversion of PGH2 to PGD2); assay type: biochemical; conditions: 10 nM H-PGDS, PGH2 formed in situ by COX-2 from arachidonic acid
T1 construct: Full length human H-PGDS cDNA (Invitrogen Ultimate ORF 10H13026) was amplified by PCR; 6-His (N); TEV protease cleavage site (N); made in house; host or cells: E. coli BL21 (DE3*), vector pET22b+
T1 sequence (O60760 whole entry): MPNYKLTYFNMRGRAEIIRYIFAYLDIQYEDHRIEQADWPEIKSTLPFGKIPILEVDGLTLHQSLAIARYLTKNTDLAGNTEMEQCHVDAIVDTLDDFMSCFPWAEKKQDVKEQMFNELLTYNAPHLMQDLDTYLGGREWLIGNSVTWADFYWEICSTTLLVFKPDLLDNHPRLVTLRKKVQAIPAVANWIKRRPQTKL
In short: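 RapidFire SPE–MS read-out calculated percent conversion from relative PGD2 and PGF2α (substrate surrogate) levels. Recombinant full-length human H-PGDS (His-tag, E. coli) turned over PGH2, produced in situ at ˜10 μM by human COX-2 (FLAG-tag, Sf9 cells) acting on arachidonic acid.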

Question: With CS(=O)(=O)C1CCC(NC(=O)N2CC(Oc3cccc4scnc34)C2)CC1 (centres unmarked) [Example 98, 3-(Benzo[d]thiazol-4-yloxy)-N-(4-(methylsulfonyl)cyclohexyl)azetidine-1-carboxamide] as the compound, how does the “Potency Range (mean pIC50)” value read?
Answer: ** (pIC50 = 6.0-7.0)

same assay, conditions: 10 nM H-PGDS, PGH2 formed in situ by COX-2 from arachidonic acid; read-out: Potency Range (mean pIC50) (converted)

Question: For O=C(NC1CN(c2nccc(Cl)n2)C1)[C@H]1C[C@H](Oc2cccc3scnc23)C1 [Example 74, (trans)-3-(Benzo[d]thiazol-4-yloxy)-N-(1-(4-chloropyrimidin-2-yl)azetidin-3-yl)cyclobutanecarboxamide], which IC50 is on record?
Answer: 10 to 79.4 nM

Question: For CN(C)c1ccnc(N2CC(NC(=O)[C@H]3C[C@H](Oc4cccc5scnc45)C3)C2)n1 [Example 75, (trans)-3-(Benzo[d]thiazol-4-yloxy)-N-(1-(4-(dimethylamino)pyrimidin-2-yl)azetidin-3-yl)cyclobutanecarboxamide], which IC50 is on record?
Answer: 10 to 79.4 nM

Question: How did the IC50 turn out when CN(C)c1nccc(N2CC(NC(=O)[C@H]3C[C@H](Oc4cccc5scnc45)C3)C2)n1 [Example 76, (trans)-3-(Benzo[d]thiazol-4-yloxy)-N-(1-(2-(dimethylamino)pyrimidin-4-yl)azetidin-3-yl)cyclobutanecarboxamide] was run?
Answer: 100 to 1000 nM

Question: For O=C(NC1CN(c2ncc(F)cn2)C1)[C@H]1C[C@H](Oc2cccc3scnc23)C1 [Example 78, (trans)-3-(Benzo[d]thiazol-4-yloxy)-N-(1-(5-fluoropyrimidin-2-yl)azetidin-3-yl)cyclobutanecarboxamide], which IC50 is on record?
Answer: 10 to 79.4 nM

Question: For Cc1nnc(NC(=O)[C@H]2C[C@H](Oc3cccc4scnc34)C2)o1 [Example 79, (trans)-3-(Benzo[d]thiazol-4-yloxy)-N-(5-methyl-1,3,4-oxadiazol-2-yl)cyclobutanecarboxamide], which IC50 is on record?
Answer: 100 to 1000 nM

Question: For O=C(NC1CN(c2ncccn2)C1)[C@H]1C[C@H](Oc2cccc3scnc23)C1 [Example 80, (trans)-3-(Benzo[d]thiazol-4-yloxy)-N-(1-(pyrimidin-2-yl)azetidin-3-yl)cyclobutanecarboxamide], which IC50 is on record?
Answer: 10 to 79.4 nM

Question: How did the IC50 turn out when O=C(NC1CN(c2ccccn2)C1)[C@H]1C[C@H](Oc2cccc3scnc23)C1 [Example 81, (trans)-3-(Benzo[d]thiazol-4-yloxy)-N-(1-(pyridin-2-yl)azetidin-3-yl)cyclobutanecarboxamide] was run?
Answer: 10 to 79.4 nM

Question: Which IC50 does the source give for O=C(NC1CCN(c2ccccn2)CC1)N1CC(Oc2cccc3scnc23)C1 [Example 88, 3-(Benzo[d]thiazol-4-yloxy)-N-(1-(pyridin-2-yl)piperidin-4-yl)azetidine-1-carboxamide] here?
Answer: 10 to 79.4 nM

Question: For O=C(NC1CCN(C(=O)OCc2ccccc2)CC1)N1CC(Oc2cccc3scnc23)C1 [Example 89, Benzyl 4-(3-(benzo[d]thiazol-4-yloxy)azetidine-1-carboxamido)piperidine-1-carboxylate], which IC50 is on record?
Answer: 10 to 79.4 nM

Question: How did the IC50 turn out when O=C(NC1CCN(CC(F)(F)F)CC1)N1CC(Oc2cccc3scnc23)C1 [Example 91, 3-(Benzo[d]thiazol-4-yloxy)-N-(1-(2,2,2-trifluoroethyl)piperidin-4-yl)azetidine-1-carboxamide] was run?
Answer: 10 to 79.4 nM

Question: Which IC50 does the source give for CC(C)(O)[C@H]1CC[C@H](NC(=S)N2CC(Oc3cccc4scnc34)C2)CC1 [Example 95, 3-(Benzo[d]thiazol-4-yloxy)-N-((trans)-4-(2-hydroxypropan-2-yl)cyclohexyl) azetidine-1-carbothioamide] here?
Answer: 10 to 79.4 nM

Question: Which IC50 does the source give for CC(C)(C)OC(=O)N1CCC(NC(=O)N2CC(Oc3cccc4scnc34)C2)CC1 [Example 96, tert-butyl 4-(3-(benzo[d]thiazol-4-yloxy)azetidine-1-carboxamido)piperidine-1-carboxylate] here?
Answer: 100 to 1000 nM

Question: With CS(=O)(=O)N1CCC(NC(=O)N2CC(Oc3cccc4scnc34)C2)CC1 [Example 97, 3-(Benzo[d]thiazol-4-yloxy)-N-(1-(methylsulfonyl)piperidin-4-yl)azetidine-1-carboxamide] as the compound, how does the IC50 read?
Answer: 100 to 1000 nM

Question: How did the IC50 turn out when O=C1NCC[C@@H]1NC(=O)N1CC(Oc2cccc3scnc23)C1 [Example 99, (S)-3-(Benzo[d]thiazol-4-yloxy)-N-(2-oxopyrrolidin-3-yl)azetidine-1-carboxamide] was run?
Answer: 100 to 1000 nM

Question: How did the IC50 turn out when O=C(N[C@H]1CC[C@H](N2CCCS2(=O)=O)CC1)N1CC(Oc2cccc3scnc23)C1 [Example 101, 3-(Benzo[d]thiazol-4-yloxy)-N-((trans)-4-(1,1-dioxidoisothiazolidin-2-yl)cyclohexyl)azetidine-1-carboxamide] was run?
Answer: 10 to 79.4 nM

Question: With CN1CCN([C@H]2CC[C@H](NC(=O)N3CC(Oc4cccc5scnc45)C3)CC2)C1=O [Example 102, 3-(Benzo[d]thiazol-4-yloxy)-N-((trans)-4-(3-methyl-2-oxoimidazolidin-1-yl)cyclohexyl)azetidine-1-carboxamide] as the compound, how does the IC50 read?
Answer: 100 to 1000 nM

Question: Which IC50 does the source give for O=C(N[C@H]1CC[C@H](N2CCOC2=O)CC1)N1CC(Oc2cccc3scnc23)C1 [Example 103, 3-(Benzo[d]thiazol-4-yloxy)-N-((trans)-4-(2-oxooxazolidin-3-yl)cyclohexyl)azetidine-1-carboxamide] here?
Answer: 100 to 1000 nM

Question: How did the IC50 turn out when C[C@]1(O)CC[C@H](NC(=O)N2CC(Oc3cccc4scnc34)C2)CC1 [Example 105, 3-(Benzo[d]thiazol-4-yloxy)-N-((trans)-4-hydroxy-4-methylcyclohexyl)azetidine-1-carboxamide] was run?
Answer: 100 to 1000 nM

Question: For CC(C)(O)CO[C@H]1CC[C@H](NC(=O)N2CC(Oc3cccc4scnc34)C2)CC1 [Example 106, 3-(Benzo[d]thiazol-4-yloxy)-N-((trans)-4-(2-hydroxy-2-methylpropoxy)cyclohexyl)azetidine-1-carboxamide], which IC50 is on record?
Answer: 10 to 79.4 nM

Question: How did the IC50 turn out when O=C(NC1CN(c2ncccn2)C1)N1CC(Oc2cccc3scnc23)C1 [Example 107, 3-(Benzo[d]thiazol-4-yloxy)-N-(1-(pyrimidin-2-yl)azetidin-3-yl)azetidine-1-carboxamide] was run?
Answer: 10 to 79.4 nM

Question: With CC(C)(O)[C@H]1CC[C@H](NC(=O)N2CC(Oc3cccc4scnc34)C2)CC1 [Example 108, 3-(Benzo[d]thiazol-4-yloxy)-N-((trans)-4-(2-hydroxypropan-2-yl)cyclohexyl)azetidine-1-carboxamide] as the compound, how does the IC50 read?
Answer: 10 to 79.4 nM

Question: CC(C)(O)[C@H]1CC[C@H](NC(=O)[C@H]2C[C@H](Oc3cccc4scnc34)C2)CC1 [Example 109, (trans)-3-(Benzo[d]thiazol-4-yloxy)-N-((trans)-4-(2-hydroxypropan-2-yl)cyclohexyl)cyclobutanecarboxamide] was tested. Which IC50 did it give?
Answer: 10 to 79.4 nM

Question: Which IC50 does the source give for NC(=O)c1ccc(N2CC(NC(=O)[C@H]3C[C@H](Oc4cc(F)cc5scnc45)C3)C2)nc1 [Example 110, 6-(3-((trans)-3-(6-Fluorobenzo[d]thiazol-4-yloxy)cyclobutanecarboxamido)azetidin-1-yl)nicotinamide] here?
Answer: 10 to 79.4 nM

Question: For Cc1ccc(N2CC(NC(=O)[C@H]3C[C@H](Oc4cc(F)cc5scnc45)C3)C2)[n+]([O-])c1 [Example 111, 2-(3-((trans)-3-((6-Fluorobenzo[d]thiazol-4-yl)oxy)cyclobutanecarboxamido)azetidin-1-yl)-5-methylpyridine 1-oxide], which IC50 is on record?
Answer: 100 to 1000 nM

Question: With Cc1cnc(N2CC(NC(=O)[C@H]3C[C@H](Oc4cc(F)cc5scnc45)C3)C2)nc1 [Example 112, (trans)-3-((6-Fluorobenzo[d]thiazol-4-yl)oxy)-N-(1-(5-methylpyrimidin-2-yl)azetidin-3-yl)cyclobutanecarboxamide] as the compound, how does the IC50 read?
Answer: 10 to 79.4 nM
